We go through four molecules from PubChem BioAssay (NCI).

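Method: 48-hour compound exposure of cells in 96-well plates, five concentrations, linear interpolation of endpoints. TGI: concentration producing complete growth inhibition.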 Where only a bound is given, the exact number is not on record here.

In one assay the test system is SK-MEL-2 melanoma. In words: inhibition of tumour cell growth, NCI panel, 48 h.
In turn, `Oc1cc(O)cc(-c2nc3cc(F)ccc3s2)c1` displayed a TGI of 45.1 µM.

Another assay deals with SK-MEL-28 melanoma. Briefly: inhibition of tumour cell growth, NCI panel, 48 h.
`COc1ccc(C2OC(N)=C(C#N)C3=C2CCCC3C)cc1OC` (configuration not stated) yielded a TGI above 100 µM.

Molecule `COc1ccc(CC2c3cc(OC)c(OC)cc3CC[N+]2(C)C)cc1OC` (configuration not stated) returned a TGI above 100 µM.

As for `O=C(O)c1nc2ccc(C(F)(F)F)cc2nc1NCc1ccc(F)cc1`, the TGI was above 100 µM.

In turn, `Oc1cc(O)cc(-c2nc3cc(F)ccc3s2)c1` came in with a TGI of 77 µM.

The subject of another assay is SK-MEL-5 melanoma. Briefly: inhibition of tumour cell growth, NCI panel, 48 h.
Take `COc1ccc(C2OC(N)=C(C#N)C3=C2CCCC3C)cc1OC` (configuration not stated): the TGI is above 100 µM.

`COc1ccc(CC2c3cc(OC)c(OC)cc3CC[N+]2(C)C)cc1OC` (configuration not stated) had a TGI above 100 µM.

`O=C(O)c1nc2ccc(C(F)(F)F)cc2nc1NCc1ccc(F)cc1` had a TGI of 35.2 µM.

Turning to `Oc1cc(O)cc(-c2nc3cc(F)ccc3s2)c1`, the TGI stood at 37.1 µM.

Another assay deals with SK-OV-3 ovarian. Briefly: inhibition of tumour cell growth, NCI panel, 48 h.
As for `COc1ccc(C2OC(N)=C(C#N)C3=C2CCCC3C)cc1OC` (configuration not stated), the TGI is above 100 µM.

`COc1ccc(CC2c3cc(OC)c(OC)cc3CC[N+]2(C)C)cc1OC` (configuration not stated) gave a TGI above 100 µM.

As for `O=C(O)c1nc2ccc(C(F)(F)F)cc2nc1NCc1ccc(F)cc1`, the TGI is 93 µM.

Consider `Oc1cc(O)cc(-c2nc3cc(F)ccc3s2)c1`, for which the TGI was 70.4 µM.

A further assay has as its system SN12C renal. In words: inhibition of tumour cell growth, NCI panel, 48 h.
In the case of `COc1ccc(C2OC(N)=C(C#N)C3=C2CCCC3C)cc1OC` (configuration not stated), the TGI is above 100 µM.

Turning to `COc1ccc(CC2c3cc(OC)c(OC)cc3CC[N+]2(C)C)cc1OC` (configuration not stated), the TGI is above 100 µM.

In the case of `O=C(O)c1nc2ccc(C(F)(F)F)cc2nc1NCc1ccc(F)cc1`, the TGI is 35.4 µM.

Take `Oc1cc(O)cc(-c2nc3cc(F)ccc3s2)c1`: the TGI was 76.4 µM.

The test system of a further assay is SNB-19 CNS. In words: inhibition of tumour cell growth, NCI panel, 48 h.
`COc1ccc(C2OC(N)=C(C#N)C3=C2CCCC3C)cc1OC` (configuration not stated) had a TGI above 100 µM.

In turn, `COc1ccc(CC2c3cc(OC)c(OC)cc3CC[N+]2(C)C)cc1OC` (configuration not stated) returned a TGI above 100 µM.

Regarding `O=C(O)c1nc2ccc(C(F)(F)F)cc2nc1NCc1ccc(F)cc1`, the TGI is above 100 µM.

Regarding `Oc1cc(O)cc(-c2nc3cc(F)ccc3s2)c1`, the TGI is 97.2 µM.

Another assay has as its system SNB-75 CNS. In words: inhibition of tumour cell growth, NCI panel, 48 h.
On to `COc1ccc(C2OC(N)=C(C#N)C3=C2CCCC3C)cc1OC` (configuration not stated), for which the TGI is above 100 µM.

With `COc1ccc(CC2c3cc(OC)c(OC)cc3CC[N+]2(C)C)cc1OC` (configuration not stated), the TGI was above 100 µM.

`O=C(O)c1nc2ccc(C(F)(F)F)cc2nc1NCc1ccc(F)cc1` showed a TGI of 94.9 µM.

Another assay relates to SR leukemia. In words: inhibition of tumour cell growth, NCI panel, 48 h.
`O=C(O)c1nc2ccc(C(F)(F)F)cc2nc1NCc1ccc(F)cc1` came in with a TGI of 42 µM.

The next assay relates to SW-620 colon. In words: inhibition of tumour cell growth, NCI panel, 48 h.
In the case of `COc1ccc(C2OC(N)=C(C#N)C3=C2CCCC3C)cc1OC` (configuration not stated), the TGI was above 100 µM.

For the molecule `COc1ccc(CC2c3cc(OC)c(OC)cc3CC[N+]2(C)C)cc1OC` (configuration not stated), the TGI was above 100 µM.

Consider `O=C(O)c1nc2ccc(C(F)(F)F)cc2nc1NCc1ccc(F)cc1`, for which the TGI is above 100 µM.

As for `Oc1cc(O)cc(-c2nc3cc(F)ccc3s2)c1`, the TGI was above 100 µM.

Another assay deals with T-47D breast. Briefly: inhibition of tumour cell growth, NCI panel, 48 h.
`COc1ccc(C2OC(N)=C(C#N)C3=C2CCCC3C)cc1OC` (configuration not stated) registered a TGI above 100 µM.

Molecule `COc1ccc(CC2c3cc(OC)c(OC)cc3CC[N+]2(C)C)cc1OC` (configuration not stated) returned a TGI above 100 µM.

The molecule `O=C(O)c1nc2ccc(C(F)(F)F)cc2nc1NCc1ccc(F)cc1` came in with a TGI above 100 µM.

As to `Oc1cc(O)cc(-c2nc3cc(F)ccc3s2)c1`, the TGI was 51.4 µM.

A further assay concerns TK-10 renal. In words: inhibition of tumour cell growth, NCI panel, 48 h.
The molecule `COc1ccc(C2OC(N)=C(C#N)C3=C2CCCC3C)cc1OC` (configuration not stated) gave a TGI above 100 µM.

As to `COc1ccc(CC2c3cc(OC)c(OC)cc3CC[N+]2(C)C)cc1OC` (configuration not stated), the TGI was above 100 µM.

`Oc1cc(O)cc(-c2nc3cc(F)ccc3s2)c1` yielded a TGI of 76.5 µM.

The next assay concerns U251 CNS. In words: inhibition of tumour cell growth, NCI panel, 48 h.
For `COc1ccc(C2OC(N)=C(C#N)C3=C2CCCC3C)cc1OC` (configuration not stated), the TGI is above 100 µM.

Regarding `COc1ccc(CC2c3cc(OC)c(OC)cc3CC[N+]2(C)C)cc1OC` (configuration not stated), the TGI is above 100 µM.

On to `O=C(O)c1nc2ccc(C(F)(F)F)cc2nc1NCc1ccc(F)cc1`, for which the TGI came to 56.9 µM.

The molecule `Oc1cc(O)cc(-c2nc3cc(F)ccc3s2)c1` showed a TGI of 60.5 µM.

In a further assay the test system is UACC-257 melanoma. In words: inhibition of tumour cell growth, NCI panel, 48 h.
`COc1ccc(C2OC(N)=C(C#N)C3=C2CCCC3C)cc1OC` (configuration not stated) yielded a TGI above 100 µM.

As to `COc1ccc(CC2c3cc(OC)c(OC)cc3CC[N+]2(C)C)cc1OC` (configuration not stated), the TGI is above 100 µM.

Turning to `O=C(O)c1nc2ccc(C(F)(F)F)cc2nc1NCc1ccc(F)cc1`, the TGI was 76.2 µM.

Consider `Oc1cc(O)cc(-c2nc3cc(F)ccc3s2)c1`, for which the TGI worked out at 45.6 µM.

Another assay relates to UACC-62 melanoma. Briefly: inhibition of tumour cell growth, NCI panel, 48 h.
As for `COc1ccc(C2OC(N)=C(C#N)C3=C2CCCC3C)cc1OC` (configuration not stated), the TGI was above 100 µM.

In turn, `COc1ccc(CC2c3cc(OC)c(OC)cc3CC[N+]2(C)C)cc1OC` (configuration not stated) registered a TGI above 100 µM.

Regarding `O=C(O)c1nc2ccc(C(F)(F)F)cc2nc1NCc1ccc(F)cc1`, the TGI turned out to be 35.1 µM.

`Oc1cc(O)cc(-c2nc3cc(F)ccc3s2)c1` showed a TGI of 40.7 µM.

For a further assay, the system named is UO-31 renal. Briefly: inhibition of tumour cell growth, NCI panel, 48 h.
`COc1ccc(C2OC(N)=C(C#N)C3=C2CCCC3C)cc1OC` (configuration not stated) came in with a TGI above 100 µM.

The molecule `COc1ccc(CC2c3cc(OC)c(OC)cc3CC[N+]2(C)C)cc1OC` (configuration not stated) came in with a TGI above 100 µM.

For `O=C(O)c1nc2ccc(C(F)(F)F)cc2nc1NCc1ccc(F)cc1`, the TGI amounted to 7.39 µM.

`Oc1cc(O)cc(-c2nc3cc(F)ccc3s2)c1` showed a TGI of 76.6 µM.
